The values below are quoted from earlier work in PMC10855781 (International Journal of Molecular Sciences, 2024).

Entries after “also recorded” stand apart in the source; their conditions may differ. Like-named read-outs stand apart in the source and are kept apart here. Some results are limits rather than exact numbers.

Data set [1] deals with human breast adenocarcinoma (MCF-7). As to conditions: ref [75]. The source says:
Table 2 Comparative study of cytotoxic effects and cardiotoxicity elicited by selected GnRH-based anthracycline conjugates. | column: IC50 Values (μM)

Data set [2] concerns human colorectal adenocarcinoma (HT-29). As to conditions: Table 2; ref [75]. The source says:
Table 2 Comparative study of cytotoxic effects and cardiotoxicity elicited by selected GnRH-based anthracycline conjugates. || Table 3 In vivo tumor growth inhibition of a few relevant Dau-GnRH-III conjugates. | column: Cytostatic Effect (IC50: μM) on HT-29 cells

Data set [3] concerns Human cardiac myocytes (HCM). More on the design: key: 0: no cardiotoxicity; +: weak; ++: moderate; +++: strong cardiotoxicity. As to conditions: long-term (0–72 h) cytotoxic effect, impedimetric; ref [75]. The source says:
Table 2 Comparative study of cytotoxic effects and cardiotoxicity elicited by selected GnRH-based anthracycline conjugates. | column: Cardiotoxicity || The main drug-related toxic side effect of anthracyclines is cardiotoxicity, leading to cardiomyopathy and heart failure. Comparative experiments to determine the cardiotoxicity of peptide–anthracycline conjugates with different linkages might be informative for the other conjugates with different types of drugs as well. For this purpose, human cardiomyocytes (HCM) and human umbilical vein endothelial cells (HUVEC) were used as models. The long-term (0–72 h) cytotoxic effect of sixteen GnRH-based conjugates containing Dox and Dau was determined by real-time impedimetric sensing using th ...

Data set [4] relates to human umbilical vein endothelial cells (HUVEC). Further details: key: 0: no cardiotoxicity; +: weak; ++: moderate; +++: strong cardiotoxicity. As to conditions: long-term (0–72 h) cytotoxic effect, impedimetric; ref [75]. The text has this: Table 2 Comparative study of cytotoxic effects and cardiotoxicity elicited by selected GnRH-based anthracycline conjugates. | column: Cardiotoxicity

The subject of data set [5] is PANC-1 (human pancreas adenocarcinoma). The note with it: 10 μM, 72 h treatment, ref [110]. How it is done:
(§1) We assessed a modified version of this peptide as a homing device, where Cys was replaced by Ser because the thiol group is not necessary to introduce an oxime linkage. […] Using this conjugate at 10 μM concentration, the cell viability of the PANC-1 cells was 0.1% after a 72 h treatment. In contrast, the cell viability of normal human dermal fibroblast (NHDF), a model of healthy cells, was roughly 75%, showing a significa ...

The test system of data set [6] is normal human dermal fibroblast (NHDF). The note with it: 10 μM, 72 h treatment, ref [110]. As to the method:
as §1

For data set [7] the following is noted: lysosomal homogenate; Dau=Aoa-Gly-OH, Dau=Aoa-Gly-Phe-OH, H-Lys(Dau=Aoa)-OH; ref [110].
The test system of another data set is PANC-1 tumor. The note with it: ref [110]; for tumor growth inhibition by tumor volume: eighteen treatments, day 74. How it is done:
The in vivo tumor growth inhibitory effect of the conjugate and free Dau was investigated on s.c.-developed PANC-1 tumor-bearing SCID female mice. The free drug was applied once a week at a maximum tolerated dose of 1 mg/kg body weight (three treatments), while the conjugate was administered, on average, three times per a week either at a 2 mg/kg or 10 mg/kg dose, calculated as per the Dau content (eighteen treatments altogether). The first treatment was given on day 10 after tumor inoculation. After the third treatment with free Dau, the animals lost 20% of their weight; therefore, the mice i ...

The nature of another data set: lysosomal homogenate. The note with it: up to 72 h.
Data set [8] in a line: rat liver lysosomal homogenate. The note with it: up to 6 h.
The test system of the next data set is PC3 cancer cell lines. As to conditions: PC3, 1.5 h incubation; concentration for internalization of 50% of the conjugate in living cells; ref [84]; read-out: cellular uptake (UC50). The text has this:
(§2) Table 4 In vitro and in vivo activity of bombesin analog–daunomycin conjugates on PC3 cells. | column: L1: Dau=Aoa-LRRY- […]le-NH2; L5: Dau=Aoa-LRRY- fQWAVGHStaL-NH2; L6: Dau=Aoa-LRRY- fQWAVβAlaHStaNle-NH2

The next data set concerns PC3 cells. The note with it: ref [84], read-out: cytostatic effect (IC50).
From the text: as §2

The test system of data set [9] is PC-3 human prostatic adenocarcinoma. More on the design: method as in PMID 36834815. The note with it: s.c. PC-3, ref [84]. The source says:
This 14-mer peptide (Glp-[…]NH2), first discovered in the skin of the frog Bombina bombina, is associated with the gastrin-releasing peptide (GRP) as a mammalian counterpart. The bombesin receptor family comprises neuromedin receptor B (NMB-R, or BB1), gastrin-releasing peptide receptor (GRP-R, or BB2) and bombesin receptor subtype 3 (BRS-3, or BB3). Among them, GRP-R has been the most investig ...

Data set [10] has as its system different cancer cell lines, e.g. HT-29. The note with it: ref [18]. The source says:
In our group, we synthesized conjugates based on a heptapeptide (VHLGYAT) selected by Zhang et al. and tested them on HT-29 human colon adenocarcinoma. Since sequence modification may result in different oxime-linked Dau-amino acid fragments, a cathepsin B- labile spacer was incorporated to the N-terminal of the homing peptide. From the parent compound (Dau=Aoa-LRRY-VHLGYAT-NH2), the potential positions that can be substituted were selected using Ala-scan.

Another data set deals with HT-29 tumor. The note with it: mouse, in vivo. As to the method: In our group, we synthesized conjugates based on a heptapeptide (VHLGYAT) selected by Zhang et al. and tested them on HT-29 human colon adenocarcinoma. Since sequence modification may result in different oxime-linked Dau-amino acid fragments, a cathepsin B- labile spacer was incorporated to the N-terminal of the homing peptide. From the parent compound (Dau=Aoa-LRRY-VHLGYAT-NH2), the potential positions that can be substituted were selected using Ala-scan. […] Statistical analysis was performed by Mann-Whitney test. *, ** and *** mean significant at p < 0.05, p < 0.01 and p < 0.001, respectively. Adapted with permission from ref. [18]. 2019, Elsevier. TEXT PRINTED IN THE PICTURE: (a) Dau: Tumour weight (g): 16% | (a) Parent: Tumour weight (g): 35% | (a) G/F exchange: Tumour weight (g): 11% | (b) Dau: Liver weight (g): 72% | (b) Parent: Liver weight (g): 101% | (b) G/F exchange: Liver weight (g): 90% | (c) Dau: Prol ...

In the case of `COc1cccc2c1C(=O)c1c(O)c3c(c(O)c1C2=O)C[C@@](O)(C(=O)CO)C[C@@H]3O[C@H]1C[C@H](N)[C@H](O)[C@H](C)O1` [doxorubicin (Dox), doxorubicin], the IC50 in [1] and in data set [2] was 0.1 µM throughout. Further, the “Cardiotoxicity, HCM” value in data set [3] is “+++”. For the same molecule, the “Cardiotoxicity, HUVEC” value in [4] is given as “+++”.

Take “Dau=Aoa-GFLG-K(Dau=Aoa)SKAAKN-OH [listing 1 of 2 here]”: the cell viability was 0.1% in data set [5] and “roughly 75%” in data set [6]. Besides, the “time of release of three drug-containing metabolites” value in data set [7] is given as at most 72 h. Besides, the “tumor growth inhibition by tumor volume” value in the data set with PANC-1 tumor (2 mg/kg (Dau content)) is given as 14%; with PANC-1 tumor (10 mg/kg (Dau content)), 32.2%. Besides, the tumor weight reduction in the data set on PANC-1 tumor (2 mg/kg (Dau content)) is recorded as 27.3%; with PANC-1 tumor (10 mg/kg (Dau content)), 30.4%. Further, the toxic side effects entry with PANC-1 tumor (2 or 10 mg/kg Dau content) is recorded as “No toxic side effects”. For the same molecule, the “highest tumor inhibition rate” value in the data set on PANC-1 tumor (day 67, after 16 treatments, dose not stated) was 43%.

Take “Dau=Aoa-GFLG-K(Dau=Aoa)SKAAKN-OH [listing 2 of 2 here]”: the fragment found entry in the data set “lysosomal homogenate” is on record as “Dau=Aoa-Gly-Phe-OH, within 72 h; also recorded: H-Lys(Dau=Aoa)-OH, within 72 h”.

For the molecule Dau=Aoa-LRRY- QWAVGHLNle-NH2, in data set [8], the fragment found result is “Dau=Aoa-Leu-OH, less than 30 min”.

Dau=Aoa-LRRY- QWAVGHLNle-NH2 [L1]: in the data set with PC3 cancer cell lines, the EC50 is 22.9 µM. Also, the IC50 with PC3 cells is 4.38 ± 0.33 µM.

Take Dau=Aoa-LRRY- fQWAVGHStaL-NH2: the fragment found entry in [8] was “Dau=Aoa-Leu-OH, less than 30 min”.

With Dau=Aoa-LRRY- fQWAVβAlaHStaNle-NH2, in data set [8], the fragment found result is “Dau=Aoa-Leu-OH, less than 30 min”.

For Dau=Aoa-LRRY- fQWAVβAlaHStaNle-NH2 [L6], the EC50 in the data set on PC3 cancer cell lines is 16.1 µM. In the data set on PC3 cells, the IC50 was 18 ± 3.01 µM. Further, in [9] (i.p. 10 mg Dau-content/kg every fifth day from day 9, five treatments, day 33, Dau 1 mg/kg, terminated day 26), the tumor volume inhibition is 31.4%. Further, the tumor weight inhibition in data set [9] (i.p. 10 mg Dau-content/kg, five treatments, day 33) is given as 33.1%. The “tumor DT enhancement” value in data set [9] (tumor doubling time, 10 mg Dau-content/kg) is 11.5%.

Dau=Aoa-LRRY-VHLFYAT-NH2: the “in vitro cytostasis, times higher activity than the parent conjugate” value is 2–5 times in [10] (different cancer cell lines) and “up to 2.6 times” in data set [10] (on HT-29). For the same molecule, the “Liver weight, percent label in Figure 5b” value with HT-29 tumor is 90%.

Take N-O-CH2-CO-TFFYGGSRGKRNNFKTEEY-CONH2: the fragment found entry in the data set “lysosomal homogenate” is reported as “Dau=Aoa-Thr-OH, major, within 1 h”.

With NH2-TFFYGGSRGKRNNFKTEEY-CONH2, in the data set “lysosomal homogenate”, the fragment found result is recorded as “H-Lys(Dau=Aoa)-OH, major, within 1 h”.
